Data from publication PMC10779433, “Bidirectional Allosteric Coupling between PIP2 Binding and the Pore of the Oncochannel TRPV6” (International Journal of Molecular Sciences, 2024).
Where two headings read alike, the source gives them in different places. Residues, ends and D or L forms follow the SMILES beside them. *: point of attachment. Palmitoyl = CCCCCCCCCCCCCCCC(=O)*

Assays:
TRPV6 G488R = experiment: Whole-cell patch clamp, TRPV6 G488R; assay type: cell-based, human; settings: HEK293 cells; for inhibition of current (in words): Figure 2D
From the text: (§1) N-terminally TagRFP-labeled human TRPV6 (725 aa) was kindly provided by R. Bhardwaj and M. Hediger (University of Bern, Bern, Switzerland). This variant is translated from the first ATG codon and thus deviates from the non-ATG-initiated protein which is expressed in vivo (accession number NM_018646.6) by lacking 40 amino acids of the very N-terminus. For N-terminal labeling with EYFP, TRPV6 was cloned into pEYFP-C1 (Clontech) via EcoRI and SacII restriction sites. Mutations (F468A, R470A, F472A, K484A/Q, G488R, R492A/Q, I575A, G579A, D580A/K, H582A, W583A/F, H587A, R589A, W593A, R632A/Q, R470A, W583F) were introduced using the QuickChange XL site-directed mutagenesis kit (Stratagene, San Diego, CA, USA) and Pfu DNA Polymerase (Promega, Madison, WI, USA). pTagRFP-hTRPV6 I575A was kindly provided by the lab of M. Hediger (University of Bern, Bern, Switzerland). Forward and reverse primers for site-directed mutagenesis were synthesized by Eurofins genomics GmbH (Wien, Vienna, Austria). Intactness of the constructs in terms of sequence was confirmed by sequencing (Microsynth Austria GmbH, Wien, Vienna, Austria; Eurofins genomics GmbH, Wien, Vienna, Austria). In the present experiments, Tag-RFP-labeled constructs were implemented for NFAT screens, patch clamp measurements, and Fura-2-based Ca^2+ imaging, while for R.Geco1.2 measurements, TRPV6 WT and mutants were used which carried an EYFP label at the N-terminus (pEYFP-C1 vector) to avoid spectral overlap. R.Geco1.2 was purchased from Addgene (No. 45494), and mCherry-CRY2-5ptase OCRL was established in the lab of P. De Camilli and was derived from Addgene (No. 66836), as was CIBN-CAAX (No. 79574). Plasmids encoding for mCerulean3-CRY2-5′ ptase OCRL, YFP-CIBN-CAAX, and the mCherry-tagged PH domain were provided by K. Groschner (Medical University of Graz, Graz, Austria). […] CFP-NFAT (NFATc1, equivalent to NFAT2) was kindly provided by R. Kehlenbach (Scripps Research Institute, La Jolla, CA, USA).
Cultivation of human embryonic kidney (HEK) 293 cells occurred in DMEM supplemented with 10% fetal calf serum, penicillin (100 U/mL), and streptomycin (100 µg/mL) at 37 °C under humidified atmosphere containing 5% CO2. Transient transfection was performed 20–24 h prior to experiments using the TransFectin lipid reagent (Bio-Rad, Hercules, CA, USA), in accordance with the instructions of the supplier. For Ca^2+ imaging using R.Geco1.2, 2 μg of the indicator-encoding plasmid were additionally transfected, while 1 μg plasmid DNA was routinely used per construct in all other cases. […]
Electrophysiological experiments were performed at 20 °C to 24 °C in whole-cell recording configurations of the patch clamp technique. […] The liquid junction potential was determined as 12 mV; the voltages were not adjusted. […]

TRPV6 WT = target: T1, TRPV6 WT (Homo sapiens, UniProt Q9H1D0); experiment: Whole-cell patch clamp, TRPV6 WT; assay type: cell-based; settings: for re-activation after washout with DMSO: 0.1 μM cis-22a or 10 μM pal-PIP2 peptide, then diluted DMSO, n=4 each, Figure S6C,D
T1 construct: expressed in transfected cells; host or cells: HEK293 cells, transient transfection
T1 sequence (Q9H1D0 41-765 limits assumed): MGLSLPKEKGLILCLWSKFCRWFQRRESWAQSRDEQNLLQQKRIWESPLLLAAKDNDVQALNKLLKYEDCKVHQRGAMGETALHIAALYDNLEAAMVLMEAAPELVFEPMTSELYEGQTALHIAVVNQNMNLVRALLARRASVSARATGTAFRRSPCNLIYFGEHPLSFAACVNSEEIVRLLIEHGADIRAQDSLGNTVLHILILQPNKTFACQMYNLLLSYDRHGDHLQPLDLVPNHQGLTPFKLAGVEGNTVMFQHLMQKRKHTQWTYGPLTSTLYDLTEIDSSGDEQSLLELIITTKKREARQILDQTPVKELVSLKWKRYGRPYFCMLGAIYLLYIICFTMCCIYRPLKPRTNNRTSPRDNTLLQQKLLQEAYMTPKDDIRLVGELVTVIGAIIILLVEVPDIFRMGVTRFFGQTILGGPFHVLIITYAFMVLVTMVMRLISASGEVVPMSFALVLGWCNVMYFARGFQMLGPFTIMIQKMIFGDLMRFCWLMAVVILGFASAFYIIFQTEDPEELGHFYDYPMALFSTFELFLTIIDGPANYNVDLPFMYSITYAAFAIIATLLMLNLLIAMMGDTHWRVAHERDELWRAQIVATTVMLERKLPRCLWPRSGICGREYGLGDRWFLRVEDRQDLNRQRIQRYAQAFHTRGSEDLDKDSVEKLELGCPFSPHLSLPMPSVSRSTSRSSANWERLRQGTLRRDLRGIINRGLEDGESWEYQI
From the text: as §1
Cultivation of human embryonic kidney (HEK) 293 cells occurred in DMEM supplemented with 10% fetal calf serum, penicillin (100 U/mL), and streptomycin (100 µg/mL) at 37 °C under humidified atmosphere containing 5% CO2. Transient transfection was performed 20–24 h prior to experiments using the TransFectin lipid reagent (Bio-Rad, Hercules, CA, USA), in accordance with the instructions of the supplier. For Ca^2+ imaging using R.Geco1.2, 2 μg of the indicator-encoding plasmid were additionally transfected, while 1 μg plasmid DNA was routinely used per construct in all other cases. For patch clamp experiments, cells were reseeded on poly-L-lysine-coated glass slides at least 4 h prior to experiments. To exclude mycoplasma contaminations, culture supernatants were regularly tested by means of the VenorGem Advanced Mycoplasma Detection kit (VenorGEM, Berlin, Germany).
Electrophysiological experiments were performed at 20 °C to 24 °C in whole-cell recording configurations of the patch clamp technique. A Ag/AgCl electrode was used as a reference electrode. The implemented voltage ramp protocol included a holding potential of +50 mV, wherefrom voltage was ramped from −90 mV to +90 mV within 200 ms with an interval of 5 s between individual ramps. For the time courses, the inward current density at −74 mV was considered. The internal pipette solution contained 145 mM cesium methane sulfonate, 8 mM NaCl, 3.5 mM MgCl2, 10 mM HEPES, and 20 mM EGTA (pH 7.2). For electrophysiological measurements, the basic extracellular solution was composed of 145 mM NaCl, 5 mM CsCl, 1 mM MgCl2, 10 mM HEPES, 10 mM glucose, and 10 mM CaCl2 (pH 7.4). Leak correction of currents was performed by subtracting the residual current after 1 mM La^3+ application at the end of the experiment. The liquid junction potential was determined as 12 mV; the voltages were not adjusted. Clampfit 11.1.0.23 and OriginPro 2020b software were used for data analysis. All experiments were conducted on a minimum of two different days.

Row | inhibition of current (in words) (TRPV6 WT; HEK293 cells, 10 µM cis-22a, after 0.1 µM, Figure 2D) | inhibition of current (TRPV6 WT; HEK293 cells, 10 μM cis-22a, 10 mM Ca2+, relative to La3+ block, Figure 4C) | SMILES | inhibition of current (in words) (TRPV6 G488R; 0.1 µM cis-22a, 10 mM Ca2+) | inhibition of current (in words) (TRPV6 G488R; 10 µM cis-22a (hundredfold higher dose), after 0.1 µM) | re-activation after washout with DMSO (TRPV6 WT; HEK293 cells) | inhibition of current (TRPV6 G488R; 10 μM pal-PIP2 peptide, relative to 1 mM La3+, n=4, Figure S1E) | apparent inhibition of current (TRPV6 G488R; 20 μM pal-PIP2 peptide, 10 mM Ca2+, relative to 1 mM La3+, Figure 2B) | IC50 (TRPV6 WT) | inhibition at 20 µM (TRPV6 WT; HEK293, read-out: apparent inhibition of current) | inhibition at 10 µM (TRPV6 WT; HEK293, read-out: inhibition of current) | inhibition at 10 µM (TRPV6 WT; HEK293, read-out: mean percentage of inhibition (current)) | inhibition at 10 µM (TRPV6 WT; HEK293, read-out: mean percentage of inhibition (residual current)) | Ca2+ selectivity (TRPV6 WT; HEK293 cells, 10 μM pal-PIP2 peptide, current-voltage relationship, Figure S1D) | reduction of current density (in words) (TRPV6 WT; HEK293 cells, Figure 1C,D, S1B–D) | Hill coefficient of dose–response (TRPV6 WT; HEK293 cells, Hill fit, 0.1 μM to 30 μM) | effect at further increased concentration (TRPV6 WT; HEK293 cells, above 30 μM up to 100 μM, supposedly due to increased DMSO concentration) | maximum inhibition of TRPV6 currents (plateau) (TRPV6 WT; HEK293 cells, plateau from 20 μM on)
1 | almost complete block | ~ 98% | Cc1cccc(C2CCC(N3CCN(c4cccnc4)CC3)CC2)c1.O=C(O)C(F)(F)F (stereo not drawn) [cis-22a] | not inhibited | essentially unaffected | no re-activation occurred |  |  |  |  |  |  |  |  |  |  |  | 
2 |  |  | CCCCCCCCCCCCCCCC(=O)N[C@@H](Cc1c[nH]cn1)C(=O)N[C@@H](CCCNC(=N)N)C(=O)N[C@@H](CCC(N)=O)C(=O)N[C@@H](CCCCN)C(=O)N[C@@H](Cc1c[nH]cn1)C(=O)N[C@@H](Cc1ccccc1)C(=O)N[C@@H](CCC(=O)O)C(=O)N[C@@H](CCCCN)C(=O)N[C@@H](CCCNC(=N)N)C(=O)N[C@@H](CCCNC(=N)N)C(N)=O [pal-PIP2 peptide] (Palmitoyl-HRQKHFEKRR-NH2) |  |  | no re-activation occurred | ~ 4% | about 24% | 4.47 µM | ~63% | ~56% | 51.6% | 54% | remained unchanged | reduced in a dose-dependent manner | 1.95 | rapid membrane rupture or leaky measurements | about 60%
